Experimental data published in ChEMBL document CHEMBL5131490, “5-Substituted 3, 3', 4', 7-tetramethoxyflavonoids - A novel class of potent DNA triplex specific binding ligands” (Bioorg Med Chem Lett, 2022).
Active and inactive are the calls of the source. No cut-off for these calls is given here.

Tests used:
[1] = Stabilization of [poly(dA).poly(dT)] triplex DNA (unknown origin) assessed as change in melting temperature at 10 uM by UV based assay
[2] = Binding affinity to triplex DNA1 containing 15 nucleotide-long triplex-forming region (unknown origin) assessed as change in melting temperature at 10 uM by UV based assay
[3] = Stabilization of [poly(dA).2poly(dT) triplex DNA (unknown origin) assessed as melting temperature at 20 uM by Thermal denaturation assay
[4] = Binding affinity to triplex DNA1 containing 15 nucleotide-long triplex-forming region (unknown origin) at 100 uM by ITC
[5] = Stabilization of [poly(dA).2poly(dT) triplex DNA (unknown origin) assessed as melting temperature at 10 uM by DSC assay (reference value: 36.8 degC)
[6] = Stabilization of [poly(dA).2poly(dT) triplex DNA (unknown origin) assessed as deltaH level temperature at 10 uM by DSC assay (reference value: 5.19 KJ/mol)
[7] = Stabilization of [poly(dA).2poly(dT) triplex DNA (unknown origin) assessed as deltaS level temperature at 10 uM by DSC assay (reference value: 0.0167 mol.K)
[8] = Stabilization of [poly(dA).2poly(dT) triplex DNA (unknown origin) assessed as effect on CD spectrum up to 25 uM by CD spectroscopy
[9] = Stabilization of [poly(dA).2poly(dT) triplex DNA (unknown origin) assessed as increase in melting temperature at 1 uM by Thermal denaturation assay

Row | Structure (SMILES) | ΔTm [1] | ΔTm [2] | Tm [3] | Ka [4] | Tm [5] | deltaH [6] | deltaS [7] | Activity [8] | ΔTm [9]
1 | COc1cc(OCCCCN2CCN(C)CC2)c2c(=O)c(OC)c(-c3ccc(OC)c(OC)c3)oc2c1 | 12.3 °C | 5.6 °C |  |  |  |  |  |  | 
2 | NC[C@@H]1O[C@H](O[C@H]2[C@@H](O)[C@H](O[C@@H]3[C@@H](O)[C@H](N)C[C@H](N)[C@H]3O[C@H]3O[C@H](CN)[C@@H](O)[C@H](O)[C@H]3N)O[C@@H]2CO)[C@H](N)[C@@H](O)[C@@H]1O |  |  | 24 °C | 160000 M⁻¹ |  |  |  |  | 
3 | CCCN(CCC)CCCCOc1cc(OC)cc2oc(-c3ccc(OC)c(OC)c3)c(OC)c(=O)c12 | 10.3 °C | 11.2 °C |  |  |  |  |  |  | 
4 | CCCCN(CCCC)CCCCOc1cc(OC)cc2oc(-c3ccc(OC)c(OC)c3)c(OC)c(=O)c12 | 3.3 °C | 5.6 °C |  |  |  |  |  |  | 
5 | COc1cc(O)c2c(=O)c(OC)c(-c3ccc(OC)c(OC)c3)oc2c1 | 2.5 °C | 3.2 °C |  |  | 38.5 °C | 1.24 kcal/mol | 0.0167 KJ/(mol.K) | Active | 
6 | CCN(CC)CCCCOc1cc(OC)cc2oc(-c3ccc(OC)c(OC)c3)c(OC)c(=O)c12 | 14.5 °C | 11.2 °C |  |  |  |  |  |  | 
7 | CCCCCN(CCCCC)CCCCOc1cc(OC)cc2oc(-c3ccc(OC)c(OC)c3)c(OC)c(=O)c12 | 2.4 °C | 5.6 °C |  |  |  |  |  |  | 
8 | COc1cc(OCCCCN2CCCCC2)c2c(=O)c(OC)c(-c3ccc(OC)c(OC)c3)oc2c1 | 16.4 °C | 13.6 °C | 24 °C |  |  |  |  |  | 6 °C
9 | COc1cc(OCCCCN2CCCC2)c2c(=O)c(OC)c(-c3ccc(OC)c(OC)c3)oc2c1 | 17.4 °C | 12.6 °C |  | 310000 M⁻¹ | 48.9 °C | 2.08 kcal/mol | 0.0271 KJ/(mol.K) | Active | 
